The subject of assay [1] is weed plants such as Avena spp., Lolium multiflorum, Stellaria media, Setaria spp., Sinapis alba and Amaranthus retroflexus. Put plainly: Pre-emergence herbicidal activity (pot test under glass). Type of assay: in vivo. Particulars: applied pre-emergence at a rate of 2 kg or less of active substance per hectare; WP formulation; visual scoring after 3 weeks vs untreated controls. The source says: 1. Pre-Emergence Herbicidal Activity Seeds of monocot and dicot weed and crop plants are planted out in sandy loam soil in wood fiber pots and covered with soil. The test compounds, formulated as wettable powders (WP), are then applied to the surface of the soil cover, in the form of an aqueous suspension, at a water application rate of 600 I/ha (converted), in various dosages, with the addition of 0.2% of wetting agent. After the treatment, the pots are set up under glass and held under good growth conditions for the test plants. Visual scoring of the emergence damage to the trial plants is made after a trial period of 3 weeks in comparison with untreated controls (herbicidal activity in percent (%): 100% activity=plants have died, 0% activity=like control plants).

Assay [2] relates to weed plants such as Sinapis alba, Echinochloa crus-galli, Cyperus iria, Avena spp., Stellaria media, Setaria spp., and Amaranthus retroflexus. Nature of the assay: Post-emergence herbicidal activity (pot test under glass). Type of assay: in vivo. To be noted: applied post-emergence (one-leaf stage) at a rate of 2 kg or less of active substance per hectare; WP formulation; visual scoring after about 3 weeks vs untreated controls. The procedure:
2. Post-Emergence Herbicidal Activity Seeds of monocot and dicot weed and crop plants are planted out in sandy loam soil in wood fiber pots, covered with soil, and cultivated under glass under good growth conditions. Two-three weeks after sowing, the trial plants are treated at the one-leaf stage. The test compounds, formulated as wettable powders (WP), are then sprayed onto the green parts of the plants, at a water application rate of 600 I/ha (converted), in various dosages, with the addition of 0.2% of wetting agent. After the trial plants have stood for about 3 weeks under glass under optimum growth conditions, the effect of the products is scored visually in comparison with untreated controls. (herbicidal activity in percent (%): 100% activity=plants have died, 0% activity=like control plants).

The results in this text go back to patent US20070161513A1, “3-[1-halo-1-arylmethanesulfonyl]- and 3-[1-halo-1-heteroarylmethanesulfonyl]- isoxazoline derivatives, processes for preparing them, and use as herbicides and plant growth regulators” (Bayer CropScience GmbH, priority 2005, published 2007).

Structures are written as SMILES.

For the compound `CC1(C)CC([S+]([O-])C(Cl)c2c(F)cccc2Cl)=NO1` (stereo not drawn) [III-5.1, 3-{[Chloro(2-chloro-6-fluorophenyl)methyl]sulfinyl}-5,5-dimethyl-4,5-dihydroisoxazole], in assay [1], the “herbicidal activity against weed plants, pre-emergence” value (from here on “herbicidal activity … pre-emergence”) is given as “very good herbicidal activity”. Besides, the “herbicidal activity against weed plants, post-emergence” value (from here on “herbicidal activity … post-emergence”) in assay [2] is “very good herbicidal activity”.

`CC1(C)CC([S+]([O-])C(Cl)c2ccccc2)=NO1` (stereo not drawn) [III-1.1]: the “herbicidal activity … pre-emergence” value in assay [1] is listed as “very good herbicidal activity”. The “herbicidal activity … post-emergence” value in assay [2] is given as “very good herbicidal activity”.

Turning to `CC1(C)CC(S(=O)(=O)C(Cl)c2ccccc2)=NO1` (stereo not drawn) [Compound I-1.1, 3-{[Chloro(phenyl)methyl]sulfonyl}-5,5-dimethyl-4,5-dihydroisoxazole], the “herbicidal activity … pre-emergence” value in assay [1] is “very good herbicidal activity”. Further, in assay [2], the “herbicidal activity … post-emergence” value is recorded as “very good herbicidal activity”.
